{"source": "patent USRE41784E1", "about": "“Adhesive material” (Sony Corporation, priority 2000, dated 2010)", "key": {"skin of rabbits [1]": {"test_system": "skin of rabbits", "assay": "Draize test (skin irritation, PII value)", "conditions": "for PII value: preferred acrylic/methacrylic acid esters; for PH value: starting material (component) of the adhesive materials", "excerpt": "(§1) The PII, or skin irritation, value is a skin toxicity index measured in accordance with the method defined by the Consumer Product Safety Commission of the USA (Draize Method; The Consumer Product Safely Commission of the USA, the Code of Federal Regulations, Title 16, Section 1500.41). A lower index corresponds to less pronounced skin irritation.\n(§2) Hair was removed with the aid of an electric hair clipper from the lumbar regions of six healthy rabbits (body weight: 2.0-4.0 kg) to expose the skin over an area of about 10 cm^2. The skin on the right side of the vertebra was incised with a surgical knife over an area of 2.5 cm^2, creating a lesion. The skin on the left side of the vertebra was left intact, and pads obtained by applying 0.5 mL samples were affixed at two locations on the right and left of the vertebra. The pads were peeled off 24 and 72 hours following affixation, redness and swelling were visually observed, the results were graded using a five-point system (levels 0 to 4), a gross mean was obtained using the average values for each rabbit, and the gross mean value was termed the PII value."}, "[2]": {"test_system": "mutant strain (his−) of Salmonella requiring histidine", "conditions": "starting material (component) of the adhesive materials", "procedure": "The Ames test referred to herein is also known as a mutagenicity test, and is one of tests in which bacteria are used to screen chemical substances for carcinogenicity or mutagenicity. […] This mutation is the result of DNA damage, and carcinogenicity is believed to become more pronounced with increased ease of mutation. Consequently, an adhesive material having high biological safety must give a negative result of the Ames test.\nThis test was performed using direct reverse mutation of a mutant strain (his−) of Salmonella requiring histidine to a non-requiring strain (his+) under the action of a test substance. A specific test method involved preparing histidine-free media to which a metabolically active substance (S9) bad been added, and histidine-free media devoid of the metabolically active substance (S9). The test substance was admixed into these media, a strain (his−) requiring histidine was cultured, and the bacterial colony count of a medium containing the test substance was compared with the bacterial colony count of a medium devoid of the substance. If the first value was greater than the second, the test result was concluded to be positive, otherwise the result was concluded to be negative."}, "skin of rabbits [3]": {"test_system": "skin of rabbits", "conditions": "rabbit, in vivo", "excerpt": "as §1, §2"}}, "note": "Read-outs that look alike come from different tables or passages of the source."}
{"compound": "1,3-butanediol methacrylate", "values": [{"measurement": "PII value", "setting": "skin of rabbits [1]", "value": 0.0}]}
{"compound": "C=C(C)C(=O)OCC(C)O", "note": "(centres unmarked) [2-hydroxypropyl methacrylate]", "values": [{"measurement": "PII value", "setting": "skin of rabbits [1]", "value": 0.0}]}
{"compound": "C=C(C)C(=O)OCC(C)(C)COC(=O)C(=C)C", "note": "[Neopentyl glycol dimethacrylate]", "values": [{"measurement": "PII value", "setting": "skin of rabbits [1]", "value": 0.0}, {"measurement": "PH value", "setting": "skin of rabbits [1]", "value": 0.0}, {"measurement": "Mutagenicity", "setting": "[2]", "value": "negative"}]}
{"compound": "C=CC(=O)OCCOc1ccccc1", "note": "[Phenoxyethyl acrylate]", "values": [{"measurement": "PH value", "setting": "skin of rabbits [1]", "value": 1.5}]}
{"compound": "C=C(C)C(=O)OCCO", "note": "[hydroxyethyl methacrylate]", "values": [{"measurement": "PII value", "setting": "skin of rabbits [1]", "value": 0.0}]}
{"compound": "Polypropylene glycol diacrylate", "values": [{"measurement": "PH value", "setting": "skin of rabbits [3]", "value": 0.0}, {"measurement": "PII value", "setting": "skin of rabbits [3]", "value": 0.0}, {"measurement": "Mutagenicity", "setting": "[2]", "value": "negative"}]}
{"compound": "ditrimethylol propane tetraacrylate", "values": [{"measurement": "PII value", "setting": "skin of rabbits [1]", "value": 0.0}]}
